In patent US20070043024A1, “Azacyclic compounds as inhibitors of sensory neurone specific channels” (priority 2003, published 2007) one finds IC50 data, which are given here for 34 compounds.

By pIC50 is commonly meant the IC50 on a negative log10 scale, so that one unit is a factor of ten.

pIC50: −log10 of the molar value. “And” between values parts separate entries of the source, which are not always exact repeats. Equal entries are not always repeated.

T1 sequence (Q9Y5Y9 whole entry): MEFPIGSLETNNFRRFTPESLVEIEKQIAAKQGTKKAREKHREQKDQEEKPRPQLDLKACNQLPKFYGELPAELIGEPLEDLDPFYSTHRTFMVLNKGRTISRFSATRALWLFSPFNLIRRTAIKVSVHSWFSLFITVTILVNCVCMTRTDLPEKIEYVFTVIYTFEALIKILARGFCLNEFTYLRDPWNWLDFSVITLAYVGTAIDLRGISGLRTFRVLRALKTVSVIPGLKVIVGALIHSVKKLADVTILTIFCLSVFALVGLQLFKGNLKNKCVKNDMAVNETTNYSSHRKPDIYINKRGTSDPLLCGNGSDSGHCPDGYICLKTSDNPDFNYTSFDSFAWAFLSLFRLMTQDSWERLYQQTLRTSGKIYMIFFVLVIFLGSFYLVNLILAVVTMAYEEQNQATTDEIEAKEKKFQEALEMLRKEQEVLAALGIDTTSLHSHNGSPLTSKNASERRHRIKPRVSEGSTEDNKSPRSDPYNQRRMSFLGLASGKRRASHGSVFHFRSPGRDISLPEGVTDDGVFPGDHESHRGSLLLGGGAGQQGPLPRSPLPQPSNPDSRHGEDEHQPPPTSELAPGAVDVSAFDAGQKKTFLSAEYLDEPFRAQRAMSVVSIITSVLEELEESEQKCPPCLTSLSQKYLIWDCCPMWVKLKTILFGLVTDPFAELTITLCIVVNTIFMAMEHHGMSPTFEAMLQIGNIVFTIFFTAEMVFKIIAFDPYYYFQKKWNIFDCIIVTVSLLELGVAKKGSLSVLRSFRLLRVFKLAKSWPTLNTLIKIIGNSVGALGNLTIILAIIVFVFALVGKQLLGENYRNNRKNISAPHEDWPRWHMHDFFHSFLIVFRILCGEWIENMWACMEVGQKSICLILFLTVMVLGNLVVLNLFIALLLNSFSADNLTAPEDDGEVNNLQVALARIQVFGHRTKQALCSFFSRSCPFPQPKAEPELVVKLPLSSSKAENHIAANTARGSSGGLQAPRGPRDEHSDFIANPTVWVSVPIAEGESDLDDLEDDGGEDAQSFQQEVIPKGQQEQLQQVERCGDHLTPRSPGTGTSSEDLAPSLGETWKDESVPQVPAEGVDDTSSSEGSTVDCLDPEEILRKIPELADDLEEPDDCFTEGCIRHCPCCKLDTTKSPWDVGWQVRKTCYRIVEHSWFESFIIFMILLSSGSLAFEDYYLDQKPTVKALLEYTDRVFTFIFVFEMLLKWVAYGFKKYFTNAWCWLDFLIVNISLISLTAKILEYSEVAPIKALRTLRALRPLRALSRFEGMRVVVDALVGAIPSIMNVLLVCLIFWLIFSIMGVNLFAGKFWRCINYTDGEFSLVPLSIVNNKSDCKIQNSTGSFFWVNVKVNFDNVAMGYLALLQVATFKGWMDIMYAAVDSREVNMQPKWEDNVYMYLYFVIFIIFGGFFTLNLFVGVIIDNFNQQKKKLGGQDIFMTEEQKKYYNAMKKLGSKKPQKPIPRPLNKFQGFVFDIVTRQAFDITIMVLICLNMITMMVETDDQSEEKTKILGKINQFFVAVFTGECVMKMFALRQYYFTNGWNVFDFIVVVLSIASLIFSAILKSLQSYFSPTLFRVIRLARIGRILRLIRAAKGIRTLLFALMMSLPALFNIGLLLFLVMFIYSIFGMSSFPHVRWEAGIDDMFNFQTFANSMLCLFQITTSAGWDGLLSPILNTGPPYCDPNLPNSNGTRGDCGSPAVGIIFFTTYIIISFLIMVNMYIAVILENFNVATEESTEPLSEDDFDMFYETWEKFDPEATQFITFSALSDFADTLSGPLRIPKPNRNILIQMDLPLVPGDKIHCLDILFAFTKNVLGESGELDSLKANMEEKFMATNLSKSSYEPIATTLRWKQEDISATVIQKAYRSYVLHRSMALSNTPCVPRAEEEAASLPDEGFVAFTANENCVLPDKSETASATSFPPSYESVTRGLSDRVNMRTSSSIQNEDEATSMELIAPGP

The first assay has as its target T1, human Nav1.8 (hNav1.8) ion channel (Homo sapiens, UniProt Q9Y5Y9).
T1 construct: expressed in transfected cells
In words: Inhibition of human Nav1.8 stably expressed in SH-SY-5Y cells (membrane potential dye fluorescence assay). It is filed as cell-based.
Settings: not given
The procedure:
Inhibition of Human Nav1.8 Stably Expressed in SH-SY-5Y Cells
A SH-SY-5Y neuroblastoma cell line stably expressing the human […] (hNav1.8) ion channel was constructed. This cell line has been used to develop a medium to high throughput assay for determining the ability of test compounds to inhibit membrane depolarisation mediated via the hNav1.8 channel.
SH-SY-5Y hNav1.8 are grown in adherent monolayer culture using 50:50 Ham's F-12/EMEM tissue culture medium supplemented with 15% (v/v) foetal bovine serum; 2 mM L-glutamine, 1% NEAA and 600 μg·ml^−1 Geneticin sulphate. Cells are removed from the tissue culture flask using trypsin/EDTA and re-plated into black walled, clear bottom 96-well assay plates at 50,000 cells·well^−1 24 hours prior to assay.
On the day of assay the cell assay plates are washed to remove cell culture medium using a sodium free assay buffer (145 mM tetramethyl ammonium chloride; 2 mM calcium chloride; 0.8 mM magnesium chloride hexahydrate; 10 mM HEPES; 10 mM glucose; 5 mM potassium chloride, pH 7.4). Fluorescent membrane potential dye solution (FLIPR™ membrane potential dye, Molecular Devices Corporation), containing 10 μM of a pyrethroid to prevent channel inactivation and 250 nM tetrodotoxin (TTX) to reduce interference from TTX-sensitive sodium channels present in the cell line. Test compound, initially dissolved in dimethyl sulfoxide but further diluted in sodium free buffer, is added to achieve the final test concentration range of 100 μM-0.05 μM.
Cell plates are incubated for 30 minutes at room temperature to allow equilibration of dye and test compound. Plates are then transferred to a fluorescence plate reader for fluorescence measurement using an excitation wavelength of 530 nm whilst measuring fluorescence emission at 565 nm. Baseline fluorescence levels are first determined before the addition of a sodium containing buffer (220 mM sodium chloride; 2 mM calcium chloride; 0.8 mM magnesium chloride hexahydrate; […]; 10 mM glucose; 5 mM potassium chloride. pH 7.4) to cause membrane depolarisation in those cells where channel block has not been effected (final sodium concentration=72.5 mM). Membrane depolarisation is registered by an increase in fluorescence emission at 565 nm.
The change in fluorescence seen in each test well upon the addition of sodium containing buffer is calculated relative to the baseline fluorescence for that well. This figure is then used for calculating the IC50 for each test compound.
In turn, `COc1cccc2c1CN(CC(=O)NCCSC(c1ccccc1)c1ccccc1)CC2` [Compound 96, N-(2-Benzhydrylsulfanyl-ethyl)-2-(8-methoxy-3,4-dihydro-1H-isoquinolin-2-yl)-acetamide] showed a pIC50 of 5.95.

As for `COc1cccc2c1CN(CC(=O)NCC[S+]([O-])C(c1ccccc1)c1ccccc1)CC2` (stereo not shown) [Compound 103, N-[2-(Diphenyl-methanesulfinyl)-ethyl]-2-(8-methoxy-3,4-dihydro-1H-isoquinolin-2-yl)-acetamide], the pIC50 is 5.65.

The same assay, now with this note: Table 1; SH-SY-5Y hNav1.8 cells, inhibition of membrane depolarisation, FLIPR membrane potential dye, 250 nM TTX, test concentration range 100 μM-0.05 μM; read-out: IC50.
Take “3,4-Dihydro-1H-isoquinoline-2-carbothioic acid benzhydryl-amide [Example 53]”: the pIC50 was 5.39.

The assay is the same for the next values; noted with them: Table 2 (compound numbers of the list in the description); SH-SY-5Y hNav1.8 cells, inhibition of membrane depolarisation, FLIPR membrane potential dye, 250 nM TTX, test concentration range 100 μM-0.05 μM; read-out: IC50.
Consider `COc1cccc2c1CN(CC(=O)N1c3ccccc3OCC1c1ccccc1)CC2` (stereo not shown) [Compound 71, 2-(8-methoxy-3,4-dihydro-1H-isoquinolin-2-yl)-1-(3-phenyl-2,3-dihydro-benzo[1,4]oxazin-4-yl)-ethanone], for which the pIC50 was 5.66.

On to `COc1cccc2c1CN(CC(=O)N1c3ccccc3Oc3ccccc31)CC2` [Compound 72, 2-(8-methoxy-3,4-dihydro-1H-isoquinolin-2-yl)-1-phenoxazin-10-yl-ethanone], for which the pIC50 was 6.31 and 5.89.

As to `COc1cccc2c1CN(CC(=O)N1c3ccccc3CCc3ccccc31)CC2` [Compound 73, 1-(10,11-dihydro-dibenzo[b,f]azepin-5-yl)-2-(8-methoxy-3,4-dihydro-1H-isoquinolin-2-yl)-ethanone], the pIC50 was 5.89.

With `COc1cccc2c1CN(CCCOC=C(c1ccccc1)c1ccccc1)CC2` [Compound 74, 2-[3-(2,2-diphenyl-vinyloxy)-propyl]-8-methoxy-1,2,3,4-tetrahydro-isoquinoline], the pIC50 was 5.74.

As to `COc1ccc2c(c1)CCCN(C(=S)NC(c1ccccc1)c1ccccc1)C2` [Compound 76, 7-methoxy-1,3,4,5-tetrahydro-benzo[c]azepine-2-carbothioic acid benzhydryl-amide], the pIC50 is 4.83.

Regarding `COc1cccc2c1CN(CC(=O)N(C(C)C)C(C)C)CC2` [Compound 78, N,N-diisopropyl-2-(8-methoxy-3,4-dihydro-1H-isoquinolin-2-yl)-acetamide], the pIC50 is 4.54.

Regarding `COc1cccc2c1CN(CC(=O)N(Cc1ccccc1)Cc1ccccc1)CC2` [Compound 79, N,N-dibenzyl-2-(8-methoxy-3,4-dihydro-1H-isoquinolin-2-yl)-acetamide], the pIC50 is 5.99.

Consider `COc1cccc2c1CN(CC(=O)NCCCC(c1ccccc1)c1ccccc1)CC2` [Compound 81, N-(4,4-diphenyl-butyl)-2-(8-methoxy-3,4-dihydro-1H-isoquinolin-2-yl)-acetamide], for which the pIC50 was 5.85.

Consider `COc1cccc2c1CN(CC(=O)NCCCC(c1ccccc1)c1ccccc1)C2` [Compound 82, N-(4,4-diphenyl-butyl)-2-(4-methoxy-1,3-dihydro-isoindol-2-yl)-acetamide], for which the pIC50 is 5.97.

As to `COc1ccc2c(c1)CCCN(CC(=O)NC(c1ccccc1)c1ccccc1)C2` [Compound 83, N-benzhydryl-2-(7-methoxy-1,3,4,5-tetrahydro-benzo[c]azepin-2-yl)-acetamide], the negative-log IC50 (pIC50) was 6.08.

Turning to `COc1ccc2c(c1)CCCN(CC(=O)NCC(c1ccccc1)c1ccccc1)C2` [Compound 84, N-(2,2-diphenyl-ethyl)-2-(7-methoxy-1,3,4,5-tetrahydro-benzo[c]azepin-2-yl)-acetamide], the pIC50 was 6.40.

`COc1ccc2c(c1)CCCN(CC(=O)NCCC(c1ccccc1)c1ccccc1)C2` [Compound 85, N-(3,3-diphenyl-propyl)-2-(7-methoxy-1,3,4,5-tetrahydro-benzo[c]azepin-2-yl)-acetamide]: the pIC50 is 5.97.

Turning to `COc1ccc2c(c1)CCCN(CC(=O)N(Cc1ccccc1)Cc1ccccc1)C2` [Compound 86, N,N-dibenzyl-2-(7-methoxy-1,3,4,5-tetrahydro-benzo[c]azepin-2-yl)-acetamide], the pIC50 is 6.31.

On to `COc1cccc2c1CN(CCC(=O)N(Cc1ccccc1)Cc1ccccc1)CC2` [Compound 87, N,N-dibenzyl-3-(8-methoxy-3,4-dihydro-1H-isoquinolin-2-yl)-propionamide], for which the pIC50 is 6.31.

`COc1cccc2c1CN(CC(=O)NCCC(c1ccccc1)c1ccccc1)C2` [Compound 88, N-(3,3-diphenyl-propyl)-2-(4-methoxy-1,3-dihydro-isoindol-2-yl)-acetamide]: the pIC50 is 5.68.

For the compound `CCOc1cccc2c1CN(CC(=O)N(Cc1ccccc1)Cc1ccccc1)CC2` [Compound 91, N,N-Dibenzyl-2-(8-ethoxy-3,4-dihydro-1H-isoquinolin-2-yl)-acetamide], the pIC50 was 5.16.

On to `CCOc1cccc2c1CN(CC(=O)NCCCC(c1ccccc1)c1ccccc1)CC2` [Compound 92, N-(4,4-Diphenyl-butyl)-2-(8-ethoxy-3,4-dihydro-1H-isoquinolin-2-yl)-acetamide], for which the pIC50 is 5.32.

For `COc1cccc2c1CN(CC(=O)NCCCOC(c1ccccc1)c1ccccc1)CC2` [Compound 94, N-(3-Benzhydryloxy-propyl)-2-(8-methoxy-3,4-dihydro-1H-isoquinolin-2-yl)-acetamide], the pIC50 was 5.55.

For the compound `C=CCOc1cccc2c1CN(CC(=O)NCCC(c1ccccc1)c1ccccc1)CC2` [Compound 97, 2-(8-Allyloxy-3,4-dihydro-1H-isoquinolin-2-yl)-N-(3,3-diphenyl-propyl)-acetamide], the pIC50 is 5.64.

With `Nc1cccc2c1CN(CC(=O)NCC(c1ccccc1)c1ccccc1)C2` [Compound 98, 2-(4-Amino-1,3-dihydro-isoindol-2-yl)-N-(2,2-diphenyl-ethyl)-acetamide], the pIC50 is 5.17.

In the case of `Nc1cccc2c1CN(CC(=O)NCCC(c1ccccc1)c1ccccc1)C2` [Compound 99, 2-(4-Amino-1,3-dihydro-isoindol-2-yl)-N-(3,3-diphenyl-propyl)-acetamide], the pIC50 was 5.61.

For the compound `Nc1cccc2c1CN(CC(=O)NCCCC(c1ccccc1)c1ccccc1)C2` [Compound 100, 2-(4-Amino-1,3-dihydro-isoindol-2-yl)-N-(4,4-diphenyl-butyl)-acetamide], the negative-log IC50 (pIC50) is 6.01.

Take `Nc1cccc2c1CN(CC(=O)N(Cc1ccccc1)Cc1ccccc1)C2` [Compound 101, 2-(4-Amino-1,3-dihydro-isoindol-2-yl)-N,N-dibenzyl-acetamide]: the pIC50 is 5.37.

As to `Nc1cccc2c1CN(CCCC(c1ccc(F)cc1)c1ccc(F)cc1)C2` [Compound 102, 2-[4,4-Bis-(4-fluoro-phenyl)-butyl]-2,3-dihydro-1H-isoindol-4ylamine], the pIC50 was 6.07.

Regarding `COc1cccc2c1CN(CC(=O)NC(C)c1ccccc1)CC2` (stereo not shown) [Compound 105, 2-(8-Methoxy-3,4-dihydro-1H-isoquinolin-2-yl)-N-(1-phenyl-ethyl)-acetamide], the pIC50 is 4.80.

For the compound `O=C(CNC(c1ccccc1)c1ccccc1)N1Cc2ccccc2C1` [Compound 107, 2-(Benzhydryl-amino)-1-(1,3-dihydro-isoindol-2-yl)-ethanone], the pIC50 was 5.65.

For the compound `Nc1cccc2c1CN(CC(=O)NC(c1ccccc1)c1ccccc1)CC2` [Compound 108, 2-(8-Amino-3,4-dihydro-1H-isoquinolin-2-yl)-N-benzhydryl-acetamide], the pIC50 is 5.46.

As to `Nc1cccc2c1CN(CC(=O)NCCCC(c1ccccc1)c1ccccc1)CC2` [Compound 109, 2-(8-Amino-3,4-dihydro-1H-isoquinolin-2-yl)-N-(4,4-diphenyl-butyl)-acetamide], the negative logarithm of the IC50 (pIC50) was 5.74.

`Nc1cccc2c1CN(CCCC(c1ccc(F)cc1)c1ccc(F)cc1)CC2` [Compound 110, 2-[4,4-Bis-(4-fluoro-phenyl)-butyl]-1,2,3,4-tetrahydro-isoquinolin-8-ylamine]: the pIC50 was 6.32.

Take `Nc1cccc2c1CN(CC(=O)NCC(c1ccccc1)c1ccccc1)CC2` [Compound 111, 2-(8-Amino-3,4-dihydro-1H-isoquinolin-2-yl)-N-(2,2-diphenyl-ethyl)-acetamide]: the pIC50 is 5.41.

For `CC(=O)Nc1cccc2c1CN(CC(=O)NCCCC(c1ccccc1)c1ccccc1)CC2` [Compound 112, 2-(8-Acetylamino-3,4-dihydro-1H-isoquinolin-2-yl)-N-(4,4-diphenyl-butyl)-acetamide], the pIC50 is 6.10.
